Literature values, collected in patent publication US20210137919A1, “PHARMACEUTICAL FORMULATIONS, METHOD FOR PRODUCING A PHARMACEUTICAL FORMULATION, AND MEDICAMENT COMPRISING SAME” (SmaWa GmbH, priority 2018, published 2021).

In the case of CN1CC(=O)N2[C@H](c3ccc4c(c3)OCO4)c3[nH]c4ccccc4c3C[C@@H]2C1=O [tadalafil], the solubility in water is given as 2 to 3.2 µg/mL.
